The text below walks through data of PubChem BioAssay (NCI).

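Step 1: Grow cells in 96-well plates. Step 2: Expose to compound for 48 hours at 5 concentrations. Step 3: Interpolate endpoints linearly; if unreached, use highest concentration. Abbreviation: GI50, concentration required for 50% inhibition of growth. TGI: total growth inhibition.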

Common to all, as to assay: growth of human tumour cells (NCI), 48 h
Test [1] relates to A498 renal.
For test [2], the system named is ACHN renal.
The subject of test [3] is DU-145 prostate.
Test [4] relates to HCC-2998 colon.
Test [5] concerns HCT-116 colon.
The subject of test [6] is HOP-62 NSCLC.
Test [7] concerns IGROV1 ovarian.
Test [8] deals with NCI-H226 lung.
Test [9] concerns OVCAR-5 ovarian.
For test [10], the system named is SF-268 CNS.
Test [11] has as its system SF-539 CNS.
In test [12] the test system is SK-MEL-28 melanoma.
Test [13] concerns SNB-19 CNS.
For test [14], the system named is SR leukemia.
The test system of test [15] is SW-620 colon.

Regarding `Cc1n[nH]c(=O)n1/N=C\CC/C=N\n1c(C)n[nH]c1=O`, the TGI in test [1], in [2], in test [3], in test [4], in test [5] and in test [6] was greater than 100 µM in each case. Also, the TGI in [7], in test [8], in test [9], in test [10], in [11] and in test [12] was greater than 100 µM throughout. The TGI in [13], in test [14] and in test [15] was greater than 100 µM in each case.
For `C=C1C(=O)O[C@H]2[C@H]3O[C@@H](C[C@@H]12)[C@@]1(C)CC[C@H](O1)C(C)=CCC[C@H]3C`, the TGI in test [1] came out at 3.15 µM; in test [2], 2.88 µM; in [3], 2.86 µM; in test [4], 3.25 µM; in test [5], 4.29 µM; in test [6], 19.1 µM. For the same compound, the TGI in test [7] is 3.83 µM; in [8], 7.02 µM; in test [9] it was 11.5 µM; in [10] it was 2.95 µM; in [11] it was 3.07 µM; in test [12], 3.36 µM. The figures for the TGI in [13], in [14] and in [15] were 19 µM, 0.28 µM and 7.41 µM, respectively.
As for `COc1cc(Oc2nc3c(N)cc(C(F)(F)F)cc3nc2-c2ccccc2)cc(OC)c1OC`, the TGI in test [1] was 81.5 µM; in [2], 32.5 µM; in [3] it was greater than 100 µM; in [4], greater than 55.1 µM; in [5] it was greater than 45.3 µM; in test [6], greater than 46.7 µM. In addition, the TGI in test [7] was greater than 24.3 µM; in [8], greater than 78.2 µM; in [9] it was greater than 100 µM; in [10], greater than 100 µM; in test [11], 14.3 µM; in test [12], greater than 68.7 µM. The TGI was 27.6 µM in test [13], greater than 100 µM in [14] and greater than 26.2 µM in test [15].
Regarding `COc1cccc(C2SCC(=O)N2c2ccc(-n3c(-c4ccccc4)nc4ccccc4c3=O)cc2)c1OC` (stereo unspecified), the TGI in test [1], in test [2], in test [3], in test [4], in [5] and in test [6] was greater than 100 µM throughout. In addition, the TGI in test [7], in [8], in [9], in test [10], in test [11] and in [12] was greater than 100 µM each time. Moreover, the TGI in [13], in test [14] and in [15] was greater than 100 µM in each case.
Regarding `COc1cccc2c1C(=O)c1ccc3cc(CCl)cc(O)c3c1C2=O`, the TGI was 1.7 µM in [1]; 0.84 µM in [2]; 1.78 µM in test [3]; 1.46 µM in test [4]; 0.29 µM in test [5]; 1.08 µM in test [6]. In addition, the TGI worked out at 1.54 µM in test [7]; 1.78 µM in test [8]; 1.71 µM in test [9]; 1.42 µM in test [10]; 0.701 µM in test [11]; 1.04 µM in [12]. Moreover, the TGI in test [13] stood at 1.86 µM; in [14] it was 1.13 µM; in test [15], 0.293 µM.
With `O=C1Nc2ccccc2/C1=C/c1c(Cl)[nH]c2ccc(O)cc12`, the TGI in test [1] is 11.3 µM; in test [2], 31.4 µM; in test [3], 6.69 µM; in [4] it was 24.2 µM; in [5] it was 19.4 µM; in test [6], 19.1 µM. For the same compound, the TGI in test [7] was 13.5 µM; in test [8], 5.12 µM; in test [9] it was 17.1 µM; in test [10], greater than 43.7 µM; in test [11] it was 2.16 µM; in test [12], 22.5 µM. Further, the TGI in [13] is greater than 58.8 µM; in [14] it was 12 µM; in [15], 20.7 µM.
Turning to `CCOC(=O)/C=C(\C(=O)OCC)n1ccc(=O)n(CC(=O)OCC)c1=O`, the TGI was found to be 31.7 µM in test [1]; 3.29 µM in [2]; 31.1 µM in test [3]; 32.2 µM in test [4]; 3.44 µM in test [5]; 38.7 µM in test [6]. In addition, the TGI was 19.3 µM in test [7]; 12.8 µM in [8]; 10.1 µM in [9]; 41.1 µM in test [10]; 32.3 µM in test [11]; 15.7 µM in test [12]. Besides, the TGI in test [13] was found to be 36.7 µM; in [14], 5.27 µM; in test [15], 2.72 µM. Besides, the GI50 in [15] is 1.42 µM.
Regarding `c1ccc2cc(CNCCOCCOCCNCc3ccc4ccccc4c3)ccc2c1`, the TGI worked out at 3.73 µM in test [1]; 3.26 µM in test [2]; 3.37 µM in test [3]; 0.54 µM in test [4]; 3.08 µM in test [5]; 4.01 µM in [6]. Moreover, the TGI was 3.22 µM in test [7]; 9.9 µM in [8]; 4 µM in test [9]; 4.43 µM in test [10]; 3.69 µM in [11]; 4.35 µM in test [12]. Moreover, the TGI was found to be 5.31 µM in [13], 5.45 µM in [14] and 4.62 µM in [15].
Turning to `O=C(NCCc1ccccc1)c1c(O)c2ccccc2[nH]c1=O`, the TGI in [1], in test [2], in [3], in test [4], in [5] and in [6] was greater than 100 µM in each case. Moreover, the TGI in test [7], in [8], in [9], in [10], in test [11] and in [12] was greater than 100 µM each time. For the same compound, the TGI in test [13], in [14] and in test [15] was greater than 100 µM in each case.
For `CCOP(=O)(OCC)C1=C(c2ccccc2)OC(N)=C(C#N)C1c1ccc(Cl)cc1` (stereo unspecified), the TGI in [1], in [2], in test [3], in [4], in [5] and in test [6] was greater than 100 µM each time. In addition, the TGI in [7], in test [8], in [9], in test [10], in [11] and in test [12] was greater than 100 µM in each case. The TGI in test [13], in [14] and in test [15] was greater than 100 µM throughout.
Regarding `O=C1C(=Nc2ccccc2)Oc2cc(O)ccc21`, the TGI in test [1], in test [2], in test [3], in [4], in test [5] and in test [6] was greater than 100 µM throughout. The TGI in test [7], in test [8], in test [9], in test [10], in [11] and in [12] was greater than 100 µM throughout. Also, the TGI in [13], in test [14] and in [15] was greater than 100 µM in each case.
